Laboratory results taken from the METLIN SMRT retention time set (Domingo-Almenara et al. 2019).

Assay: gradient 5% acetonitrile 3 min, to 50% in 2 min, to 85% in 15 min, held 3 min, 100 µL/min
Details: column: Zorbax Extend-C18 2.1 x 50 mm; eluents: water / acetonitrile, 0.1% formic acid
Procedure, shortened: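 The mobile phases were water and acetonitrile, each with 0.1% formic acid, pumped at 100 μL/min through a Zorbax Extend-C18 column (2.1 × 50 mm, 1.8 μm). Pure standards were injected as mixtures of ~100 molecules and detected by a quadrupole time-of-flight mass spectrometer in positive and negative ionization mode. Retention time came from computationally picked adduct peaks, each inspected by hand.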

SMILES | RP-LC retention time [s]
O=C(c1ccc(Cn2cncn2)cc1)N1CCc2ccccc21 | 706
CNC(=O)c1cc(C)n(C)n1 | 835
CNCCCNCc1ccc(-c2ccc(F)c(Cl)c2)o1 | 580
O=C(Nc1ccc(C(=O)N2CCC(C(=O)NC3CCCCC3)CC2)cc1)c1ccc(Cl)cc1 | 835
Cc1ccc(C)c(-c2cc3c4nn(CC(=O)N(C)c5ccccc5)c(=O)n4ccn3n2)c1 | 1010
COc1cc(F)ccc1-c1ccnc2nc(CCc3ccccc3)nn12 | 951
CCc1cc(=O)n(CC(=O)NCCOC)c(N2CCOCC2)n1 | 577
Cc1cc(C)c(S(=O)(=O)N2CCC(C(=O)NCCc3csc(-c4ccccc4)n3)CC2)c(C)c1 | 1070
CN(C)S(=O)(=O)c1ccc2c(c1)N(CC(=O)NCC1COCCO1)C(=O)C1CCCCN21 (configuration not stated) | 696
COc1cc(NS(=O)(=O)c2ccc3c(c2)-c2oncc2CO3)cc(OC)c1 | 884
CCCCNC(=O)CN1C(=O)CC(c2cccs2)=Nc2ccccc21 | 835
O=C(C1=NN(Cc2ccc(F)cc2)c2ccc(Cl)cc2S1(=O)=O)N1CCOCC1 | 873
Cc1ccc(NC(=O)C2CCCN(c3ncnc4c3oc3ccccc34)C2)cc1 (configuration not stated) | 825
Cc1ccc(C)c(N2CCN(Cc3nc(-c4ccc(N5CCCC5)nc4)no3)CC2)c1 | 784
O=c1[nH]cc(Cl)cc1Cl | 662
CC(=O)N1CCc2ccc(C(=O)N3CCCCCC3)cc21 | 709
Cc1cccc(-c2nc(N)n(C(=O)C3CC3)n2)c1 | 885
CCOC(=O)c1noc2ncnc(Nc3ccc(OC)cc3)c12 | 717
Cn1c(=O)c2nc(S(=O)(=O)CCC(=O)Nc3cc(F)ccc3Cl)n(C)c2n(C)c1=O | 778

SMILES | RP-LC retention time [s]
O=C(Nc1ccc(Cl)cc1F)c1cnc(-c2ccccc2)nc1-c1ccncc1 | 982
CCOc1cccc2cc(C(=O)Nc3ccc(S(N)(=O)=O)cc3)oc12 | 747
O=C(NCc1ccncc1)C1CC(=O)N(c2ccc3c(c2)CCN3C(=O)C2CC2)C1 (configuration not stated) | 573
Cc1cccc(CNc2cc(-n3cccn3)ncn2)c1 | 648
CCCOc1ccc(CN(C(=O)Cc2coc3ccc(C)cc23)C2CCS(=O)(=O)C2)cc1 (configuration not stated) | 1130
CC1CCN(C(=O)c2cc3c(s2)CCC(C(=O)Nc2ccc4c(c2)OCCO4)C3)CC1 (configuration not stated) | 947
Cc1nnc2ccc(N3CCC(C(=O)N4CCN(c5cccc(Cl)c5)CC4)CC3)nn12 | 860
N#Cc1ccccc1NC(=O)C(=O)NCc1ccccn1 | 572
COC(=O)c1cc(OCC(=O)Nc2ccc(OC)cc2)c2cc(F)ccc2n1 | 796
CCOC(=O)c1nnn(-c2ccc(OCC)cc2)c1C(=O)OCC | 1040
O=C(Nc1ccccn1)C1CCN(S(=O)(=O)c2cc(-c3noc(C4CCC4)n3)cs2)CC1 | 893
CN1c2cc(Cl)ccc2C(=O)NC12CCN(C(=O)Nc1ccccc1F)CC2 | 770
COc1ccc(-c2cc3c(=O)n(CC(=O)N4CCN(c5ccccn5)CC4)ncn3n2)cc1 | 641
CCN(CC)S(=O)(=O)c1ccc2c(c1)N(CC(=O)N1CCOCC1)C(=O)C1CCCCN21 (configuration not stated) | 777
COc1cc(NC(=O)Cn2c(N3CCOCC3)nc(C)cc2=O)cc(OC)c1 | 655
COc1ccc(-c2ccc(/C=C3/SC(N4CCCCC4)=NC3=O)o2)cc1 | 1020
Cc1ccc(S(=O)(=O)N2CCSCCSCCSCCSCC2)cc1 | 1160
Cc1nnc([C@@H]2CC(F)(F)CN2C(=O)c2ccc3c(c2)OCO3)o1 | 703
